Values joined by “and” are separate entries in the source; they are usually repeats but may differ in a detail not shown here. Equal entries are not always repeated. Where two headings read alike, the source gives them in different places.

Data set [1] can be described thus: Pharmacokinetic study: plasma kinetics after oral administration of free or encapsulated εVin. The data set is classed as in vivo, rats. As to conditions: for occurrence of metabolites after oral administration: rats, both administration forms, data not shown; for k el: read-out: Lambda z (converted); for MRT: read-out: MRT (mean residence time) (converted); for half-life: read-out: T½; for AUC0-t: 0-4 h. On the procedure: (§1) Experiments were conducted in accordance with Directive 2010/63/EU [51] and approved by the Bordeaux University Institutional Ethics Committee for Animal Research (IEC-AR CEEA 50, MESR approval A18380). Male Wistar rats (Janvier-LABS, Saint Berthevin, France) were maintained in controlled conditions: 12 h light/12 h dark cycle, humidity 50–60% and an ambient temperature of 24 ± 1 °C (animal facility agreement number: B33-063-917). Free access to food and water was allowed up to 16 h before experiments started. Rats were randomly divided into two groups. Group A (n = 5, average weight = 307.8 ± 7.7 g) received εVin dissolved in propylene glycol (5.25 mg/mL), while group B (n = 6, average weight = 308 ± 10.7 g) received the same dose of εVin but encapsulated in MLLs and suspended in ultra-pure water. Both solutions were administrated by oral gavage and precisely measured to reach a dose of 20 mg/kg bw of εVin. Blood was collected through the tail vein, making a slanting incision during the first collection. Rats were slightly anesthetized by isoflurane before every blood sample collection (600 µL) at the following time points: 20, 40, 60, 100, 140, 180 and 210 min after gavage. They were sacrificed at 240 min by a high dose of isoflurane and rapid exsanguination with saline solution injected in the right ventricular cardiac cavity with a peristaltic pump (10 mL/min). All blood samples were collected in heparinized tubes and centrifuged (10,000× g, 10 min) before sampling plasma. The liver, kidneys and four white adipose tissues (epididymal, retroperitoneal, mesenteric and subcutaneous) were removed, weighed and immediately immersed in liquid nitrogen. All blood and tissues samples were kept at −80 °C until analysis.
(§2) Extractions were performed as previously described with some modifications to improve quantification. For plasma extraction, 360 µL of methanol (4 °C) were added to an aliquot of 120 µL of plasma. The sample was vortexed during three minutes before centrifugation (30 min, 12,000× g, 4 °C). The supernatant (380 µL) was removed and evaporated using a SpeedVac concentrator (Labconco CentriVap, Thermo Fisher Scientific, Waltham, MA, USA). Residue was kept in −80 °C before analysis. For tissues extraction, tissues (about 0.5 g) were first cut with scalpels before being mixed with 4 mL of methanol:water (80:20, v:v). Samples were homogenized with an Ultra-Turrax homogenizer (IKA, Staufen, Deutschland) before being intensely vortexed. Then, samples were centrifuged 20 min at 10,000× g and 4 °C before sampling 3 mL of supernatant. All supernatants were evaporated using a SpeedVac concentrator and kept at −80 °C. Residues were reconstituted in 60 µL and 250 µL of methanol:water (50:50, v:v) or plasma and tissue, respectively. They were vortexed intensely and centrifuged at 12,000× g during 30 min at 4 °C before being injected the supernatant in LC-HRMS.
(§3) The quantification of εVin and the total of glucuronides (εVG) in plasma and tissues was performed as previously described with some modifications concerning the mass parameters. The U-HPLC separation was carried out with a Vanquish Flex system (Thermo Fisher Scientific, Les Ulis, France) consisting in a binary pump, an autosampler and a heated column compartment. The liquid chromatography separation was performed as previously detailed using C18 column (BEH C18 2.1 mm × 100 mm, 1.7 µm particle size, Waters, Guyancourt, France). The flow rate was set as 450 µL/min. The injection volume was 5 µL and the eluents were 0.1% formic acid in water for A and 0.1% formic acid in acetonitrile for B. The eluent B varied as follows: 0 min, 25%; 0.5 min, 25%; 3.6 min, 50%; 3.9 min, 50%; 4 min, 100%; 5.7 min, 100%; 5.8 min, 25%; 7 min, 25%. The column and sample temperature were 30 °C and 20 °C, respectively. The Exactive benchtrop Orbitrap mass spectrometer equipped with a HESI probe (both from Thermo Fisher Scientific, Bremen, Germany) was used. […]

On the set-up of data set [2]: method as in PMID 27175336. As to conditions: rats, oral 70 mg/kg bw, after hydrolysis with glucuronidase; cited from earlier work.
The nature of data set [3]: Quantification in plasma, liver, kidneys and white adipose tissues 4 h after oral administration. As to conditions: rats, 4 h after oral 20 mg/kg bw εVin. The data set is classed as in vivo. How it is done: as §1, §2, §3
A short description of data set [4]: Literature pharmacokinetics of εVin after oral administration in mice (Kim et al.). Format: in vivo. To be noted: oral 40 mg/kg bw (ref 31) versus 20 mg/kg bw in this study.
On the set-up of data set [5]: method as in PMID 30400351. To be noted: rats, intraperitoneal injection, cited from earlier work; for Cmax: metabolites expressed as equivalent of the native form.
On the set-up of data set [6]: method as in PMID 27902942. As to conditions: mice, oral 40 mg/kg bw; cited from earlier work.
Where [7] appears, read: male, Wistar, rat, plasma, po, 20 mg/kg, rat plasma, oral 20 mg/kg bw εVin, encapsulated form (MLLs).
[8] abbreviates: male, Wistar, rat, plasma, po, 20 mg/kg, rat plasma, oral 20 mg/kg bw εVin, free form.
Where [9] appears, read: rat plasma, oral 20 mg/kg bw εVin, encapsulated form (MLLs).
Setting [10] is: rat plasma, oral 20 mg/kg bw εVin, free form.
Where [11] appears, read: rat plasma, oral 20 mg/kg bw εVin, free form, 20 mg/kg.

On to `O=C(O)C1OC(Oc2ccc(C3Oc4cc(O)cc(C=Cc5ccc(O)cc5)c4C3c3cc(O)cc(O)c3)cc2)C(O)C(O)C1O` (stereo not drawn) [V1G], for which the “occurrence of metabolites after oral administration” value (“occurrence of metabolites” for short) in data set [1] is “traces”.

Turning to `O=C(O)[C@H]1O[C@@H](Oc2cc(/C=C/c3ccc(O)cc3)c3c(c2)O[C@H](c2ccc(O)cc2)[C@H]3c2cc(O)cc(O)c2)[C@H](O)[C@@H](O)[C@@H]1O` [V2G], in data set [1], the “occurrence of metabolites” value is given as “largely in majority”.

On to `O=C(O)C1OC(Oc2ccc(C=Cc3cc(O)cc4c3C(c3cc(O)cc(O)c3)C(c3ccc(O)cc3)O4)cc2)C(O)C(O)C1O` (stereo not drawn) [V4G], for which, in data set [1], the “occurrence of metabolites” value is given as “traces”.

`Oc1ccc([C@H]2Oc3ccc(/C=C/c4cc(O)cc(O)c4)cc3[C@@H]2c2cc(O)cc(O)c2)cc1` [δ-viniferin]: in data set [2], the “concentration of glucuronide metabolites relative to the native form” value is on record as “up to 7 fold”.

The term Cmax denotes the highest concentration seen after dosing. What is called bioavailability is dose-corrected exposure relative to a reference, in per cent. A word on the MRT: it is the average time that molecules of a dose stay in the body. In general, Tmax refers to the time at which the peak concentration occurs. Take `Oc1ccc(/C=C/c2cc(O)cc3c2[C@@H](c2cc(O)cc(O)c2)[C@H](c2ccc(O)cc2)O3)cc1` [εVin, Trans-ε-viniferin]: in data set [3] (free form), the concentration in kidneys is given as ≤ 10 pmol/g of tissue, the concentration in liver is ≤ 10 pmol/g of tissue, the “concentration in mesenteric adipose tissue” value is 92 ± 84 pmol/g of tissue and the “concentration in subcutaneous adipose tissue” value is 23 ± 12 pmol/g of tissue. In addition, the “concentration in the three other adipose depots (epididymal, retroperitoneal, subcutaneous)” value in data set [3] (free form) is on record as “around 20 pmol/g of tissue”. Besides, the “AUC0-∞ of the literature study relative to the values of this study” value in data set [4] is reported as 3.6 times. For the same molecule, the Cmax in data set [5] was 3090 ng/mL. Also, in data set [6], the bioavailability is given as 0.77% and the “maximal concentration (Cmax)” value is 42 ng/mL. Further, in data set [1] (setting [7]), the peak level (Cmax) was 11.7 ± 7.3 nM, the k el was 0.000137 s⁻¹, the mean residence time (MRT) is 3.27 h and the half-life worked out at 1.91 ± 1.34 h. Further, in data set [1] (male, Wistar, rat, plasma, po, 20 mg/kg, rat plasma, oral 20 mg/kg bw εVin, encapsulated form (MLLs), read-out: Tmax (converted)), the Tmax was 0.333 h. Besides, in data set [1] (setting [8]), the Cmax came out at 15 ± 11 nM, the k el is 0.000345 s⁻¹, the MRT was 2.12 h and the half-life stood at 0.917 ± 0.565 h. Besides, the Tmax in data set [1] (male, Wistar, rat, plasma, po, 20 mg/kg, rat plasma, oral 20 mg/kg bw εVin, free form, read-out: Tmax (converted)) was 1 h. Besides, in data set [1] (setting [9]), the “AUC0–∞” value turned out to be 1660.1 ± 1313.1 pmol/mL/min and the AUC0-t was found to be 1009.8 ± 328.3 pmol/mL/min. In data set [1] (setting [10]), the “AUC0–∞” value was found to be 1919.7 ± 955.2 pmol/mL/min and the AUC0-t worked out at 1689.1 ± 682.0 pmol/mL/min. The molecule also showed a Cmax in data set [1] (setting [11]) of 15.3 ± 10.5 nM.

Consider Trans-ε-viniferin-glucuronide [εVG], for which, in data set [3] (encapsulated form), the concentration in kidneys is reported as 114 ± 12 pmol/g of tissue, the concentration in liver is on record as 1206 ± 304 pmol/g of tissue, the “concentration in mesenteric adipose tissue” value is 213 ± 81 pmol/g of tissue and the “concentration in plasma at 4 h” value is 700 ± 175 nM. Further, in data set [3] (free form), the concentration in kidneys is 76 ± 39 pmol/g of tissue, the “concentration in kidneys relative to the native molecule” value worked out at 14 times, the concentration in liver was 604 ± 320 pmol/g of tissue and the “concentration in liver relative to the native molecule” value worked out at 60 times. For the same molecule, in data set [3] (free form), the “concentration in mesenteric adipose tissue” value was 108 ± 75 pmol/g of tissue, the “concentration in plasma at 4 h” value is 317 ± 186 nM and the “concentration in subcutaneous adipose tissue” value is reported as 105 ± 83 pmol/g of tissue. Besides, in data set [5], the Cmax was 5160 ng/mL and the Tmax was 1 h. In addition, in data set [1] (rat plasma, encapsulated versus free form, p < 0.05), the “increase of T1/2 by the encapsulation procedure” value is approximately 3 times. In data set [1] (setting [9]), the “AUC0–∞” value is 432,315.4 ± 106,406.4 pmol/mL/min, the Cmax was 1750 ± 876 nM, the Lambda z is 0.0074 ± 0.0036 * min^−1 and the Tmax amounted to 1.67 h. Further, the AUC0-t in data set [1] (setting [9]) is 307,086.4 ± 316,383.9 pmol/mL/min. This molecule also came in with a T½ in data set [1] (rat plasma, oral 20 mg/kg bw εVin, encapsulated form (MLLs), 20 mg/kg) of 1.98 ± 1.08 h. Also, in data set [1] (setting [10]), the “AUC0–∞” value is listed as 264,191.0 ± 123,786.4 pmol/mL/min, the Cmax was found to be 1670 ± 1100 nM, the Lambda z worked out at 0.0198 ± 0.0056 min⁻¹ and the “MRT (mean residence time)” value came out at 2.062 ± 0.2 h. Besides, in data set [1] (setting [10]), the Tmax worked out at 1.67 h and the AUC0-t is reported as 245,827.3 ± 114,219.8 pmol/mL/min. The T½ in data set [1] (setting [11]) was 0.633 ± 0.183 h and 0.637 ± 0.187 h. Besides, the “maximal plasma concentration of glucuronides relative to the aglycone (native) form” value in data set [1] (rat plasma, oral 20 mg/kg bw εVin, free form, listed as glucuronide forms, 20 mg/kg) is “more than 100 times”. Moreover, in data set [1] (rat plasma, oral 20 mg/kg bw εVin, free form, listed as total glucuronides, 20 mg/kg), the “maximal plasma concentration of glucuronides relative to the aglycone (native) form” value was 108 times.

These data come from article PMC8708455, “Trans-ε-Viniferin Encapsulation in Multi-Lamellar Liposomes: Consequences on Pharmacokinetic Parameters, Biodistribution and Glucuronide Formation in Rats” (Nutrients, 2021).
